# Experimental data: patent US11564394B2, “Distorted gold (I)-phosphine complexes and methods for use as antifungal agents” (University of Kentucky Research Foundation, priority 2019, dated 2023)
# Assays:
# [1] = system: C. albicans ATCC MYA-1003(R) (strain A); assay type: cell-based, Candida albicans; settings: strain A = C. albicans ATCC MYA-1003(R); MIC-0; 48 h at 35° C.
# [2] = system: C. albicans ATCC 10231(R) (strain B); assay type: cell-based, Candida albicans
# [3] = system: C. albicans ATCC MYA-1237(R) (strain C); assay type: cell-based, Candida albicans; settings: strain C = C. albicans ATCC MYA-1237(R); MIC-0; 48 h; listed as printed beside letter D
# [4] = system: C. albicans ATCC MYA-2310(S) (strain D); test: MIC determination (broth microdilution); assay type: cell-based, Candida albicans; settings: strain D = C. albicans ATCC MYA-2310(S); MIC-0; 48 h; listed as printed beside letter E
# [5] = system: C. albicans ATCC MYA-2876(S) (strain E); test: MIC determination (broth microdilution); assay type: cell-based, Candida albicans; settings: strain E = C. albicans ATCC MYA-2876(S); MIC-0; 48 h; listed as printed beside letter F
# [6] = system: C. albicans ATCC 64124(R) (strain F); assay type: cell-based, Candida albicans; settings: strain F = C. albicans ATCC 64124(R); MIC-0; 48 h; listed as printed beside letter G
# [7] = system: C. albicans ATCC 90819(R) (strain G); assay type: cell-based, Candida albicans; settings: strain G = C. albicans ATCC 90819(R); MIC-0; 48 h; listed as printed without letter, below G
# [8] = system: C. glabrata ATCC 2001 (strain H); test: MIC determination (broth microdilution); assay type: cell-based, Candida glabrata; settings: strain H = C. glabrata ATCC 2001; MIC-0; 48 h at 35° C.
# [9] = system: C. krusei ATCC 6258 (strain I); test: MIC determination (broth microdilution); assay type: cell-based; settings: strain I = C. krusei ATCC 6258; MIC-0; 48 h; listed as split over r16 and r17 (r17 printed beside letter J)
# [10] = system: C. parapsilosis ATCC 22019 (strain J); test: MIC determination (broth microdilution); assay type: cell-based; settings: strain J = C. parapsilosis ATCC 22019; MIC-0; 48 h; listed as printed beside letter K
# [11] = system: C. auris AR Bank # 0384 (strain K); test: MIC determination (broth microdilution); assay type: cell-based, Candida auris; settings: strain K = C. auris AR Bank # 0384; MIC-0; 48 h (CAS read at 24 h); Table 1; also in Table 2
# [12] = system: C. auris AR Bank # 0390 (strain L); test: MIC determination (broth microdilution); assay type: cell-based, Candida auris; settings: strain L = C. auris AR Bank # 0390; MIC-0; 48 h (CAS read at 24 h); Table 1 row printed without letter, below L; also in Table 2
# [13] = system: C. neoformans ATCC MYA-85 (strain M); test: MIC determination (broth microdilution); assay type: cell-based, Cryptococcus neoformans; settings: strain M = C. neoformans ATCC MYA-85; MIC-0; 72 h at 35° C.
# [14] = system: C. neoformans CN1 (strain N); test: MIC determination (broth microdilution); assay type: cell-based, Cryptococcus neoformans; settings: MIC-0, 72 h at 35° C.
# [15] = system: C. neoformans CN2 (strain O); test: MIC determination (broth microdilution); assay type: cell-based, Cryptococcus neoformans; settings: MIC-0, 72 h at 35° C.
# [16] = system: C. neoformans CN3 (strain P); test: MIC determination (broth microdilution); assay type: cell-based, Cryptococcus neoformans; settings: MIC-0, 72 h at 35° C.
# [17] = system: A. nidulans ATCC 38163 (strain Q); test: MIC determination (broth microdilution); assay type: cell-based, Aspergillus nidulans; settings: strain Q = A. nidulans ATCC 38163; MIC-0; 72 h at 35° C.
# [18] = system: A. terreus ATCC MYA-3633 (strain R); assay type: cell-based, Aspergillus terreus; settings: strain R = A. terreus ATCC MYA-3633; MIC-0; 72 h at 35° C.
# [19] = system: A. flavus ATCC MYA-3631 (strain S); test: MIC determination (broth microdilution); assay type: cell-based, Aspergillus flavus; settings: strain S = A. flavus ATCC MYA-3631; MIC-0; 72 h at 35° C.
# [20] = system: F. graminearum 053 (strain T); assay type: cell-based, Fusarium graminearum; settings: strain T = F. graminearum 053; MIC-0; room temperature, 5 days
# [21] = system: fungal strains (Candida spp., Cryptococcus spp., Aspergillus spp., Fusarium spp.); test: MIC determination, summary statements over the strain panel; assay type: cell-based; settings: for overall assessment as antifungals: panel of twenty fungal strains (Table 1)
# [22] = Aspergillus spp., Fusarium spp. and most of the non-albicans Candida strains
smiles,measurement,setting,value
"CC1CCC(C)[P+]1([Au-][Cl])c1ccccc1[P+]1([Au-][Cl])C(C)CCC1C [Compound 3, [1,2-bis[(2S,5S)-2,5-dimethylphospholano]benzene]digold(1)]",MIC,[1],31.3 µg/mL
same,MIC (in parentheses),[1],40.6 µM
same,MIC,[2],>31.3 (40.6) μg/mL
same,MIC (in parentheses),[2],>31.3 (40.6) μM
same,MIC,[3],> 31.3 µg/mL
same,MIC (in parentheses),[3],40.6 µM
same,MIC,[4],31.3 µg/mL
same,MIC (in parentheses),[4],40.6 µM
same,MIC,[5],31.3 µg/mL
same,MIC (in parentheses),[5],40.6 µM
same,MIC,[6],31.3 µg/mL
same,MIC (in parentheses),[6],40.6 µM
same,MIC,[7],31.3 µg/mL
same,MIC (in parentheses),[7],40.6 µM
same,MIC,[8],> 31.3 µg/mL
same,MIC (in parentheses),[8],> 40.6 µM
same,MIC,[9],> 31.3 µg/mL
same,MIC (in parentheses),[9],> 40.6 µM
same,MIC,[10],> 31.3 µg/mL
same,MIC (in parentheses),[10],> 40.6 µM
same,MIC,[11],> 31.3 µg/mL
same,MIC (in parentheses),[11],> 40.6 µM
same,MIC,[12],> 31.3 µg/mL
same,MIC (in parentheses),[12],> 40.6 µM
same,MIC,[13],1.95 µg/mL
same,MIC (in parentheses),[13],2.5 µM
same,MIC,[14],> 31.3 µg/mL
same,MIC (in parentheses),[14],> 40.6 µM
same,MIC,[15],31.3 µg/mL
same,MIC (in parentheses),[15],40.6 µM
same,MIC,[16],> 31.3 µg/mL
same,MIC (in parentheses),[16],> 40.6 µM
same,MIC,[17],> 31.3 µg/mL
same,MIC (in parentheses),[17],> 40.6 µM
same,MIC,[18],> 31.3 µg/mL
same,MIC (in parentheses),[18],> 40.6 µM
same,MIC,[19],> 31.3 µg/mL
same,MIC (in parentheses),[19],> 40.6 µM
same,MIC,[20],> 31.3 µg/mL
same,MIC (in parentheses),[20],> 40.6 µM
same,antifungal activity,"[21]; all fungal strains tested, except C. neoformans (strain M)",completely inactive
same,overall assessment as antifungals,[21],poor antifungals
"[Cl][Au-][P+](c1ccccc1)(c1ccccc1)c1ccccc1[P+]([Au-][Cl])(c1ccccc1)c1ccccc1 [Compound 1, [1,2-bis(diphenylphosphino)benzene]digold(I)]",MIC,[1],3.9 µg/mL
same,MIC (in parentheses),[1],4.3 µM
same,MIC,[2],15.6 (17.1) μg/mL
same,MIC (in parentheses),[2],15.6 (17.1) μM
same,MIC,[3],0.49 µg/mL
same,MIC (in parentheses),[3],5.4 µM
same,MIC,[4],7.8 µg/mL
same,MIC (in parentheses),[4],8.6 µM
same,MIC,[5],7.8 µg/mL
same,MIC (in parentheses),[5],8.6 µM
same,MIC,[6],7.8 µg/mL
same,MIC (in parentheses),[6],8.6 µM
same,MIC,[7],7.8 µg/mL
same,MIC (in parentheses),[7],8.6 µM
same,MIC,[8],7.8 µg/mL
same,MIC (in parentheses),[8],8.6 µM
same,MIC,[9],15.6 µg/mL
same,MIC (in parentheses),[9],17.1 µM
same,MIC,[10],15.6 µg/mL
same,MIC (in parentheses),[10],17.1 µM
same,MIC,[11],> 31.3 µg/mL
same,MIC (in parentheses),[11],> 34.3 µM
same,MIC,[12],> 31.3 µg/mL
same,MIC (in parentheses),[12],> 34.3 µM
same,MIC,[13],0.98 µg/mL
same,MIC (in parentheses),[13],1.1 µM
same,MIC,[14],3.9 µg/mL
same,MIC (in parentheses),[14],4.3 µM
same,MIC,[15],3.9 µg/mL
same,MIC (in parentheses),[15],4.3 µM
same,MIC,[16],15.6 µg/mL
same,MIC (in parentheses),[16],17.1 µM
same,MIC,[17],> 31.3 µg/mL
same,MIC (in parentheses),[17],> 34.3 µM
same,MIC,[18],> 31.3 µg/mL
same,MIC (in parentheses),[18],> 34.3 µM
same,MIC,[19],> 31.3 µg/mL
same,MIC (in parentheses),[19],> 34.3 µM
same,MIC,[20],> 31.3 µg/mL
same,MIC (in parentheses),[20],> 34.3 µM
same,antifungal activity,[21]; [22],inactive
same,overall assessment as antifungals,[21],poor antifungals
"[Cl-].c1ccc([P+]2(c3ccccc3)c3ccccc3[P+](c3ccccc3)(c3ccccc3)[Au-3]23[P+](c2ccccc2)(c2ccccc2)c2ccccc2[P+]3(c2ccccc2)c2ccccc2)cc1 [Compound 2, bis-[1,2-bis(diphenylphosphino)benzene]gold(1)]",MIC,[1],15.6 µg/mL
same,MIC (in parentheses),[1],13.9 µM
same,MIC,[2],15.6 (13.9) μg/mL
same,MIC (in parentheses),[2],15.6 (13.9) μM
same,MIC,[3],15.6 µg/mL
same,MIC (in parentheses),[3],13.9 µM
same,MIC,[4],7.8 µg/mL
same,MIC (in parentheses),[4],6.9 µM
same,MIC,[5],7.8 µg/mL
same,MIC (in parentheses),[5],6.9 µM
same,MIC,[6],7.8 µg/mL
same,MIC (in parentheses),[6],6.9 µM
same,MIC,[7],7.8 µg/mL
same,MIC (in parentheses),[7],6.9 µM
same,MIC,[8],7.8 µg/mL
same,MIC (in parentheses),[8],6.9 µM
same,MIC,[9],15.6 µg/mL
same,MIC (in parentheses),[9],13.9 µM
same,MIC,[10],7.8 µg/mL
same,MIC (in parentheses),[10],6.9 µM
same,MIC,[11],> 31.3 µg/mL
same,MIC (in parentheses),[11],> 27.8 µM
same,MIC,[12],> 31.3 µg/mL
same,MIC (in parentheses),[12],> 27.8 µM
same,MIC,[13],3.9 µg/mL
same,MIC (in parentheses),[13],3.5 µM
same,MIC,[14],3.9 µg/mL
same,MIC (in parentheses),[14],3.5 µM
same,MIC,[15],3.9 µg/mL
same,MIC (in parentheses),[15],3.5 µM
same,MIC,[16],3.9 µg/mL
same,MIC (in parentheses),[16],3.5 µM
same,MIC,[17],> 31.3 µg/mL
same,MIC (in parentheses),[17],> 27.8 µM
same,MIC,[18],> 31.3 µg/mL
same,MIC (in parentheses),[18],> 27.8 µM
same,MIC,[19],> 31.3 µg/mL
same,MIC (in parentheses),[19],> 27.8 µM
same,MIC,[20],31.3 µg/mL
same,MIC (in parentheses),[20],27.8 µM
same,antifungal activity,[21]; [22],inactive
same,overall assessment as antifungals,[21],poor antifungals
